Measured values reported in the METLIN SMRT retention time set (Domingo-Almenara et al. 2019).

Experiment: gradient 5% acetonitrile 3 min, to 50% in 2 min, to 85% in 15 min, held 3 min, 100 µL/min
Details: column: Zorbax Extend-C18 2.1 x 50 mm; eluents: water / acetonitrile, 0.1% formic acid
How it was run: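 A Zorbax Extend-C18 column (2.1 × 50 mm, 1.8 μm) run at 100 μL/min with water and acetonitrile, both containing 0.1% formic acid, separated mixtures of ~100 pure standards. The HPLC was coupled to a quadrupole time-of-flight mass spectrometer operated in positive and negative ionization mode, with dead and dwell volumes of 40 μL and 900 μL. Each retention time was taken from a computationally picked adduct peak that was then manually inspected.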

RP-LC retention time [s] | SMILES
823 | COc1ccc(N2CCN(c3cc(SCC(=O)NCc4ccccc4)ncn3)CC2)cc1
850 | Cc1cc(NC2CCCCC2)nc(-n2nc(C)cc2C)n1
702 | CN1C(=O)c2ccccc2Sc2cc(-c3noc(CNC(=O)c4ccco4)n3)ccc21
1260 | O=S(=O)(c1ccc(-c2noc(-c3ccc(Cl)cc3)n2)cc1)N1CCCC1
806 | Cc1noc(C)c1S(=O)(=O)N1CCC(n2nc(-c3ccccc3)nc2C)C1 (stereo not drawn)
748 | CN(C)C(=O)c1cc2c(s1)CCC(C(=O)NC1CCCCC1)C2 (stereo not drawn)
841 | O=C(NCCc1ccco1)C1CCN(Cc2cc3ccccc3n2Cc2ccccc2Cl)CC1
638 | O=C(Cn1nc2n(c1=O)CCCC2)N1CCN(c2ccccc2)CC1
642 | COC(=O)c1ccc(NC(=O)Cc2csc(NC(=O)c3ncccn3)n2)cc1
663 | CCCCC(Sc1nc(=O)[nH]c(C)c1C(=O)OCC)C(=O)O (stereo not drawn)
846 | CCc1ccc(NC(=O)C2CCN(C(=O)c3ncn4c3COC(c3ccccc3)C4)CC2)cc1 (stereo not drawn)
1070 | COc1ccc(CNS(=O)(=O)c2c(C)nn(-c3ccc(-c4ccc(C)cc4)nn3)c2C)cc1
849 | COc1cccc(CCN2CC(=O)N(c3cccc(C)c3)[C@@H]3CS(=O)(=O)C[C@@H]32)c1
744 | Cc1noc(Cn2cnc3c4ccccc4n(CC(=O)NC4CCCC4)c3c2=O)n1
659 | CC(C)COc1cc(=O)n2c(c1C(=O)NCCCn1cccn1)CCCCC2
767 | Cc1cc(-c2ccc3c(c2)CCN3C(=O)C2CCCO2)on1 (stereo not drawn)
768 | CCCNC(=O)C1CCN(Cc2cc3ccccc3n2Cc2ccc(Cl)cc2)CC1
917 | Cc1oc(C2CCN(C(=O)Nc3cc(F)cc(F)c3)CC2)nc1C(=O)N1CCCC1
620 | Cc1oc(-c2[nH]ncc2C(=O)N2CCCC2)cc1S(=O)(=O)NC1CC1
847 | Clc1ccc(-c2nc(N3CCCCCC3)c3ccccc3n2)cc1
623 | CCNC(=O)C1CC(=O)N(C2CCCCC2)C1 (stereo not drawn)
1140 | Cc1nc(-c2cn(C(C)C)c3ncccc23)sc1C(=O)Nc1cccc(F)c1

RP-LC retention time [s] | SMILES
856 | COCc1cc2nn(CC(=O)N3CCc4ccccc43)c(=O)n2c(-c2ccccc2)n1
909 | O=C1COc2ccc(S(=O)(=O)N3CCC(C(=O)Nc4ccc(OC(F)(F)F)cc4)CC3)cc2N1
900 | Cc1cccc(Nc2c(-c3ccc(N(C)C)cc3)nc3cnccn23)c1C
869 | CCOC(=O)c1c(C)[nH]c(C(=O)N2CCC(CC(=O)NCc3ccc(CC)cc3)CC2)c1C
734 | CC(C)(CO)NC(=O)Cc1ccc(NC(=O)C2(c3ccc(F)cc3)CC2)cc1
1170 | CCc1nc2cc(-c3noc(Cc4ccccc4Cl)n3)ccc2o1
671 | O=C(NC[C@H](O)CO)c1ccncc1Nc1ccc(I)cc1F
737 | O=C(CC1CCN(C(=O)NCc2ccccc2)CC1)NCc1ccc(F)cc1
709 | COCCOCC1CCN(C(=O)COc2cccc(OC)c2)CC1
858 | CC1=C(c2ccc(C)cc2)S(=O)(=O)N=C1N1CCC(NC(=O)Cc2cccs2)CC1
748 | COCCNC(=O)c1ccc2c(c1)N(Cc1ccc(C)cc1)C(=O)CO2
628 | COc1ccc(-c2nc3cc(C)ccn3c2NC(=O)CC(C)C)cc1
730 | CCCN(C)c1nccn2c(=O)n(CC(=O)Nc3cccc(Br)c3)nc12
910 | Cc1ccc(CN2C(=O)COc3ccc(C(=O)NC(C)(C)C)cc32)cc1
962 | O=C(CN1C(=O)CCCc2cc(S(=O)(=O)N3CCCCCC3)ccc21)Nc1ccc(F)cc1F
621 | CCc1nccn1Cc1nc(-c2cc(OC)c(OC)c(OC)c2)no1
928 | Cc1ccc(S(=O)(=O)N2CC3CN(C(=O)COc4cccc(C)c4)CC(C2)O3)cc1
770 | O=C(Nc1ccc2c(c1)OCO2)C1CCN(S(=O)(=O)c2cc(C(=O)N3CCCC3)cs2)CC1
754 | O=C(Nc1cnn(-c2ncc(N3CCCCC3)cn2)c1)NC1CCCC1
816 | CCCOc1ccc(-c2csc(NC(=O)CN3C(=O)CCC3=O)n2)cc1
671 | Cc1cc(OCC(=O)NCc2ccc3c(c2)OCO3)nc(N2CCCC(C)C2)n1 (stereo not drawn)
881 | CCc1cccc(C)c1NC(=O)Cn1c(=O)n(-c2cccc(C)c2)c(=O)c2c1cc(C)n2C

RP-LC retention time [s] | SMILES
830 | COCc1noc([C@@H]2CC(F)(F)CN2C(=O)CC(C)(C)C)n1
857 | Cc1ccccc1C(=O)NCc1nn(C)c2ccccc12
710 | COc1ccc(-c2nnc3sc(-c4ccncc4)nn23)cc1OC
731 | CC(C(=O)NC1CCN(Cc2ccccc2)CC1)n1c(=O)c(C(F)(F)F)nc2ccccc21 (stereo not drawn)
703 | CCc1ccc(OCC(=O)N2CCCCC2CCN2CCCCC2)cc1 (stereo not drawn)
665 | COc1ccccc1CNC(=O)c1cn2ccccc2n1
959 | O=C(Nc1ccc(Cl)cc1)C(=O)c1cn(CC(=O)N2CCOCC2)c2ccccc12
835 | CC1=C(c2ccc(C)cc2)S(=O)(=O)N=C1N1CCCN(C(=O)c2ccc(C#N)cc2)CC1
603 | CCn1cc(CN(Cc2c(C)nn(C)c2C)C(=O)C2CCN(c3cnn(C)c(=O)c3)C2)cn1 (stereo not drawn)
1060 | CCCn1c(=O)sc2cc(S(=O)(=O)N3CCC(C(=O)Nc4ccc(C)c(F)c4)CC3)ccc21
963 | CCCNC(=O)N1CCCC1c1nc(-c2cccc(C(F)(F)F)c2)no1 (stereo not drawn)
1150 | Cc1noc(C)c1S(=O)(=O)N1CCC2(CC1)CC(Cc1ccc(F)cc1)CCO2 (stereo not drawn)
738 | CCN1C(=O)c2cccnc2Sc2cc(NC(=O)c3ccn(CC)n3)ccc21
747 | O=C(Cc1c(F)cccc1Cl)NC1CCN(c2cc(-c3cccs3)[nH]n2)C1 (stereo not drawn)
724 | COCc1nc2cccnc2n1C1CCN(C(=O)Nc2ccccc2Br)CC1
749 | O=C(Cc1ccc(Cl)cc1)NC1CCN(c2cc(-c3cccs3)[nH]n2)C1 (stereo not drawn)
806 | COc1ccccc1C(=O)N1CCc2c(c(-c3nnc(-c4ccccc4Cl)o3)nn2C)C1
1310 | Cc1ccccc1CNC(=O)C1(C)CCN(S(=O)(=O)c2ccc(C3CCCCC3)cc2)CC1
690 | CCc1nc(-c2ccc(C(=O)NC)cc2)no1
645 | CCNC(=O)c1nn(-c2ccc(F)cc2)c(OC)cc1=O
858 | O=C(C1=CN(c2cccc(C(F)(F)F)c2)c2cc(F)ccc2S1(=O)=O)N1CCOCC1
997 | Cc1ccc(-n2cc3c(c(C(=O)NCCCOC(C)C)c2=O)CC(C)(C)CC3=O)cc1

RP-LC retention time [s] | SMILES
616 | CC(=O)N1CCc2cc(-c3ccc(C(=O)NCCCN4CCCCC4)cc3)ccc21
599 | COc1ccc(N2CCN(C(=O)NC3CCOCC3)CC2)cc1
1110 | CC(C)n1c(=O)c2ccccc2n(Cc2nc(-c3ccc(F)cc3)no2)c1=O
966 | COc1ccc(OC)c(NC(=O)C2CCCN(S(=O)(=O)c3cc(-c4noc(C)n4)cs3)C2)c1 (stereo not drawn)
945 | CC1CCN(C(=O)C2=CN(c3cc(F)cc(F)c3)c3ccccc3S2(=O)=O)CC1
801 | O=C(c1ccc(OCC2CCCN(C(=O)c3ccc(F)c(F)c3)C2)cc1)N1CCOCC1 (stereo not drawn)
779 | CC(C)(C)C1CCc2c(sc3nc(CCC(=O)N4CCC(C(N)=O)CC4)[nH]c(=O)c23)C1 (stereo not drawn)
595 | COc1ccc(OC)c2nc3c(C(=O)NCCN(C)C)cccc3nc12
916 | CCOC(=O)c1nc(N(C)c2ccccc2C)c2ccccc2n1
596 | O=C(Nc1ccccc1)N1CCc2nnc(C3CC3)n2CC1
835 | O=C1COc2ccc(S(=O)(=O)N3CCCC3C(=O)Nc3cccc(Cl)c3)cc2N1 (stereo not drawn)
705 | CCOC(=O)c1noc2nc(C)nc(NCC3CCN(Cc4ccc(C)cc4)CC3)c12
780 | CC(=O)N1CCc2cc(N3CC(C(=O)Nc4cccc(Br)c4)CC3=O)ccc21 (stereo not drawn)
665 | Cc1nn(-c2ccc(N3CCCCC3)nn2)c(C)c1CCC(=O)NCCCc1ccco1
664 | O=C1c2cccc3c2[C@@H](CCC3)CN1[C@@H]1CN2CCC1CC2
1100 | O=c1c2cc(-c3ccc(F)cc3)nn2cnn1Cc1nc(-c2ccc(F)cc2)no1
943 | Cn1c(=O)c2c(C(=O)N3CCN(c4cccc(C(F)(F)F)c4)CC3)cc(=O)n(C)c2n(C)c1=O
663 | O=S(=O)(c1cccnc1)N1CC(c2nc(-c3ccncc3)no2)C1
695 | CN(C)CCOc1ccc2c(c1)C(=O)/C(=C\c1ncc([N+](=O)[O-])n1C)C2
801 | O=S(=O)(NCc1cccnc1-c1ccc(F)cc1)c1ccc(Br)cc1

SMILES | RP-LC retention time [s]
COc1ccc(C2(C(=O)N3CCC4(CC3)N(CC3CC3)C(=O)CS4=O)CC2)cc1 (stereo not drawn) | 677
CCCNC(=O)N1[C@H]2CC[C@@H]1c1cnc(-c3ccccc3)nc1C2 | 790
